Where a name gives a salt, the structure may show the parent alone.
Assays:
EGFR WT = molecular target: T1, EGFR WT (Homo sapiens, UniProt P00533); assay: Enzymatic assay EGFR WT (method c); assay type: biochemical; settings: [EGFR WT]=2 nM, [ATP]=1 mM, [Peptide 22]=1 μM
T1 construct: purchased Thermo Fisher, Carlsbad, CA ERBB1 PR7295B
Experimental: (§1) A 2× stock solution of HER2 WT (ERBB2 0108-0000-1; ProQinase, Freiburg, Germany) corresponding to method a, was prepared as described below. Alternatively, a 2× stock solution of HER2YVMA (custom purification; Viva biotech, Shanghai, China) corresponding to method b, was prepared as described below. For method c, a 2× stock of EGFR (ERBB1 PR7295B, Thermo Fisher, Carlsbad, CA) was prepared as described below. All 2× solutions were prepared in buffer containing 50 mM HEPES, pH 7.5, 10 mM MnCl2, MgCl2, 0.005% Tween 20, 1 mM TCEP. 25 ul of 2× enzyme solution was added to a Seahorse low volume 384-well polypropylene assay plate (201288-100, Seahorse Bioscience, Chicopee, MA) containing 1 μl of compound serially diluted in 50% DMSO. To initiate the reaction, 25 μl of solution containing 2× final concentration of ATP and ProfilerPro Peptide 22 (760366, Perkin Elmer Hopkinton, MA) was added to each well. The reactions were separated on an LC3000 (Caliper Life Sciences) or a LabChip EZReader (Perkin Elmer) in kinetic mode.
(§2) At the conclusion of each assay, the data were exported from the instrument as a .rda file (LC3000) and processed in proprietary software, EZReviewer, which determines the percent of substrate converted to product within a given cycle as (P/P+S)*100 by measuring the amplitude of substrate and product peaks. Cycle time varied with amount of compounds tested between 8 and 12 cycles. Initial velocity (0-3600 s) from each reaction was determined from the slope of a plot of percent conversion at each cycle versus time (seconds). Percent inhibition was determined by dividing the slope of each reaction by the uninhibited control using 100*(1-(x/uninhibited control)). IC50 estimates were obtained by plotting the concentration of inhibitor versus percent inhibition in GraphPad Prism (GraphPad Software, San Diego, CA) using log[inhibitor] versus Response (Variable Slope Model); Y=Min+((Max-Min)/(1+((IC50/x)^Hillslope)))
(§3) • a) [HER2 WT]=12.5 nM, [ATP]=25 μM, [Peptide 22]=1 μM (ATP KMapp˜25 μM) • b) [HER2YVMA]=5 nM, [ATP]=25 μM, [Peptide 22]=1 μM (ATP KMapp˜15 μM) • c) [EGFR WT]=2 nM, [ATP]=1 mM, [Peptide 22]=1 μM (ATP KMapp˜25 μM)

HER2YVMA = HER2YVMA (Homo sapiens, UniProt P04626, INS775YVMA); assay: Enzymatic assay HER2YVMA (method b); assay type: biochemical; set-up: purchased Viva biotech, Shanghai, China custom purification; settings: [HER2YVMA]=5 nM, [ATP]=25 μM, [Peptide 22]=1 μM
HER2YVMA, sequence (P04626 with tags, fused parts or gaps INS775YVMA): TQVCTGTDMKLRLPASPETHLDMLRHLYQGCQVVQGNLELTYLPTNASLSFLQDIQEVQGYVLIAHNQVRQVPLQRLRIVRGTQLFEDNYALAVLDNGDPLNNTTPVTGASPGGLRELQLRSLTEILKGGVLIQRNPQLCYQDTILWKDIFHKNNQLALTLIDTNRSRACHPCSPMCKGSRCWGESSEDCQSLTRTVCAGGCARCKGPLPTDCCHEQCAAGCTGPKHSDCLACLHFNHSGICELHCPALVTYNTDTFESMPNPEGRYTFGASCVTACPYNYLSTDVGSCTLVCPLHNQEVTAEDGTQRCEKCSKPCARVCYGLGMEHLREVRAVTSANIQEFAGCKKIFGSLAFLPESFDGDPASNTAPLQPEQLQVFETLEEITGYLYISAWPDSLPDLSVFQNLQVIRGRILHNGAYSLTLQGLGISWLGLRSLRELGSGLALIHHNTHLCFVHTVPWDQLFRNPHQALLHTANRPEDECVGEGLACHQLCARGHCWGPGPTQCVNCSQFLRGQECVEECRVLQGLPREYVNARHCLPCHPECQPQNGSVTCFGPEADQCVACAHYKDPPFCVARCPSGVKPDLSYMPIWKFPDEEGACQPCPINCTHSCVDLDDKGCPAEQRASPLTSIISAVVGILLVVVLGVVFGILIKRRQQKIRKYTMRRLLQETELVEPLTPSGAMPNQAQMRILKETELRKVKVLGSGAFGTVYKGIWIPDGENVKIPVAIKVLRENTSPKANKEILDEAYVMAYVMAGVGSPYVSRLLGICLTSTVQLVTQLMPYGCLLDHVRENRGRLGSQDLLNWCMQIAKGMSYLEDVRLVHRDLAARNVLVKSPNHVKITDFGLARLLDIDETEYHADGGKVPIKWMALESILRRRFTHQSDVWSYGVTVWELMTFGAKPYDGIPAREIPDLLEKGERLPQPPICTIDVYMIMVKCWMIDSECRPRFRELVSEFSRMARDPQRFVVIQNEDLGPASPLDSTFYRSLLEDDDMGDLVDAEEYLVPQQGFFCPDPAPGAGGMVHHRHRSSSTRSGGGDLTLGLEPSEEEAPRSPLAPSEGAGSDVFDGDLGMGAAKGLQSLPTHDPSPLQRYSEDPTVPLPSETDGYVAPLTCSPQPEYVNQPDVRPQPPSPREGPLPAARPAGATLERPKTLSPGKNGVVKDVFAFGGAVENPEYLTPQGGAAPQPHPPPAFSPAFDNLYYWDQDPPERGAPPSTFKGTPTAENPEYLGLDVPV
Experimental: as §1, §2, §3

[1] = molecular target: T2, HER2 wildtype (WT) protein (Homo sapiens, UniProt P04626); assay: HER2 signaling (pHER2 Tyr1248/total HER2 MSD) in BT474 cells; assay type: cell-based; settings: 1.5 hr compound, 1% FBS
T2 construct: BT474 and N87 cell lines which endogenously overexpress the HER2 wildtype (WT) protein; endogenous in cells; host or cells: BT474, N87
T2 sequence (P04626 23-1255): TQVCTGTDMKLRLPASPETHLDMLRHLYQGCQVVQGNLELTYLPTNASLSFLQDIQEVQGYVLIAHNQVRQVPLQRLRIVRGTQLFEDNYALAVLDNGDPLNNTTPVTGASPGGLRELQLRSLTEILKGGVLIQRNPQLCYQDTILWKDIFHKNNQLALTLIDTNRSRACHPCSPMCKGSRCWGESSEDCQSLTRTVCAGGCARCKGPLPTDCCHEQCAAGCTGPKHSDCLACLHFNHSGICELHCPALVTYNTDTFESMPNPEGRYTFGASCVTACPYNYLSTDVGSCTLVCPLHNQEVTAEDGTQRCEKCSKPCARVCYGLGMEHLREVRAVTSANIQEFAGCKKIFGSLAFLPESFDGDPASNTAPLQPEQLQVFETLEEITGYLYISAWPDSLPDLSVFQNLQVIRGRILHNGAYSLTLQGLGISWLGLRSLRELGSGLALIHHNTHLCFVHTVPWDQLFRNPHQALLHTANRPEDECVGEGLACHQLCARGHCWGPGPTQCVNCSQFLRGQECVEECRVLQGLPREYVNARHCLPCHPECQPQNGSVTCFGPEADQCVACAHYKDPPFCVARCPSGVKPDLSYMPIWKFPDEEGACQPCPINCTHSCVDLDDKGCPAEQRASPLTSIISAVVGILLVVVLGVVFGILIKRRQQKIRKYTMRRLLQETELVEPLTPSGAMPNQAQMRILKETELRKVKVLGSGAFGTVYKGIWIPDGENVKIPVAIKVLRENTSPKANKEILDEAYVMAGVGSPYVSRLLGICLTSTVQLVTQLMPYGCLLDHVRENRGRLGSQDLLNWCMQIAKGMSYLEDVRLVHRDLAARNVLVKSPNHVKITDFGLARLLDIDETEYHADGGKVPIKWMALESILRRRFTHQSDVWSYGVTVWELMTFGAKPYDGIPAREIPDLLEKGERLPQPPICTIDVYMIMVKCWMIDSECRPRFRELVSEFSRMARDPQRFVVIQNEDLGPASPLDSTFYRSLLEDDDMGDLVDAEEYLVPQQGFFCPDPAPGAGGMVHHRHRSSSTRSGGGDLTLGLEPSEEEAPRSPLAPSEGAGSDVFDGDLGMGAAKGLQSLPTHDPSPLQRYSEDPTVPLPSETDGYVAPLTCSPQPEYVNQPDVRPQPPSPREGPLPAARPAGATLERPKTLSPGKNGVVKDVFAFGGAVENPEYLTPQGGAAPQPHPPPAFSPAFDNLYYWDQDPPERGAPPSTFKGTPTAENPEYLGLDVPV
Experimental: In addition to the engineered cell lines, the following cell lines were used: BT474 (human breast carcinoma), N87 (human gastric carcinoma), NCI-H1781 (human lung adenocarcinoma), and A431 (human epidermoid carcinoma); all cell lines were obtained from the American Type Culture Collection (ATCC, Manassas, VA). NCI-H1781 were grown in complete RPMI 1640 (Life Technologies, Carlsbad, CA) supplemented with 15% fetal bovine serum (FBS, Life Technologies, Carlsbad, CA) and 1% Penicillin-Streptomycin (P/S, Life Technologies, Carlsbad, CA). N87 cells were grown in complete RPMI 1640 supplemented with 10% FBS and 1% P/S. BT474 and A431 cells were grown in DMEM (Life Technologies, Carlsbad, CA) supplemented with 10% FBS and 1% P/S. All cells were maintained and propagated in a humidified 5% CO2 incubator at 37° C.
HER2 signaling was assessed in BT474 and N87 cell lines which endogenously overexpress the HER2 wildtype (WT) protein, in NCI-H1781 cells which endogenously expresses a HER2 mutant protein containing a VC insertion in the kinase domain (HER2VC or G776delinsVC), and in engineered cell lines transduced to express the Her2 mutant protein containing the YVMA insertion (Hek293-HER2YVMA and BEAS2B-HER2YVMA).
BT474, N87, and NCI-H1781 were plated in 96-well tissue-culture treated plates (Corning Costar, Sigma-Aldrich) in full media and incubated overnight. Hek293-HER2YVMA and BEAS2B-HER2YVMA cells were plated in 96-well poly-D-lysine treated plates (BD Bioscience, San Jose, CA). For treatment with test compounds, the media was replaced with corresponding low serum media (1% FBS) containing test compound at 1.1, 0.37, 0.12, 0.041, 0.014, 0.005, 0.0014, 0.0005 μM or DMSO control (0.1%). Cells were incubated with compound for 1.5 hr at 37° C. After compound treatment, the media was removed and cells were lysed for 30 min on ice in complete MSD lysis buffer (prepared using MSD base lysis buffer (Meso-Scale Discovery) supplemented with cOmplete, EDTA-free Protease inhibitor cocktail (Roche), Phosphatase Inhibitor Cocktails 2 and 3 (Sigma-Aldrich), and 1 mM PMSF (Sigma-Aldrich)). Lysates were stored at −70° C. until further analysis.
HER2 signaling was evaluated using phospho (Tyr1248)/total ErbB2 whole cell lysate MSD plates (Meso-Scale Discovery, Gaithersburg, MD). The phospho HER2 signal was normalized to total HER2 for each sample; results are reported as % DMSO control. The normalized data was fitted using a sigmoidal curve analysis program (Graph Pad Prism version 6) with variable Hill slope to determine EC50 values.
The HER2 signaling results are provided in Table 4, under columns titled “BT474-pHER2 EC50”, “N87-pHER2 EC50”, and “NCI-H1781-pHER2 EC50”. Hek293-HER2YVMA ins fall under the heading “HEKYVMA-pHER2 EC50”, Ba/F3 HER2YVMA fall under the heading “Ba/F3 YVMA-pHER2 EC50” and BEAS2B-HER2YVMA fall under the heading “BEAS2B YVMA-pHER2 EC50”.

HER2 WT = molecular target: T3, HER2 WT (Homo sapiens, UniProt P04626); assay: Enzymatic assay HER2 WT (method a); assay type: biochemical; settings: [HER2 WT]=12.5 nM, [ATP]=25 μM, [Peptide 22]=1 μM
T3 construct: purchased ProQinase, Freiburg, Germany ERBB2 0108-0000-1
T3 sequence (P04626 23-1255): as above
Experimental: as §1, §2, §3

T1 sequence (P00533 25-1210): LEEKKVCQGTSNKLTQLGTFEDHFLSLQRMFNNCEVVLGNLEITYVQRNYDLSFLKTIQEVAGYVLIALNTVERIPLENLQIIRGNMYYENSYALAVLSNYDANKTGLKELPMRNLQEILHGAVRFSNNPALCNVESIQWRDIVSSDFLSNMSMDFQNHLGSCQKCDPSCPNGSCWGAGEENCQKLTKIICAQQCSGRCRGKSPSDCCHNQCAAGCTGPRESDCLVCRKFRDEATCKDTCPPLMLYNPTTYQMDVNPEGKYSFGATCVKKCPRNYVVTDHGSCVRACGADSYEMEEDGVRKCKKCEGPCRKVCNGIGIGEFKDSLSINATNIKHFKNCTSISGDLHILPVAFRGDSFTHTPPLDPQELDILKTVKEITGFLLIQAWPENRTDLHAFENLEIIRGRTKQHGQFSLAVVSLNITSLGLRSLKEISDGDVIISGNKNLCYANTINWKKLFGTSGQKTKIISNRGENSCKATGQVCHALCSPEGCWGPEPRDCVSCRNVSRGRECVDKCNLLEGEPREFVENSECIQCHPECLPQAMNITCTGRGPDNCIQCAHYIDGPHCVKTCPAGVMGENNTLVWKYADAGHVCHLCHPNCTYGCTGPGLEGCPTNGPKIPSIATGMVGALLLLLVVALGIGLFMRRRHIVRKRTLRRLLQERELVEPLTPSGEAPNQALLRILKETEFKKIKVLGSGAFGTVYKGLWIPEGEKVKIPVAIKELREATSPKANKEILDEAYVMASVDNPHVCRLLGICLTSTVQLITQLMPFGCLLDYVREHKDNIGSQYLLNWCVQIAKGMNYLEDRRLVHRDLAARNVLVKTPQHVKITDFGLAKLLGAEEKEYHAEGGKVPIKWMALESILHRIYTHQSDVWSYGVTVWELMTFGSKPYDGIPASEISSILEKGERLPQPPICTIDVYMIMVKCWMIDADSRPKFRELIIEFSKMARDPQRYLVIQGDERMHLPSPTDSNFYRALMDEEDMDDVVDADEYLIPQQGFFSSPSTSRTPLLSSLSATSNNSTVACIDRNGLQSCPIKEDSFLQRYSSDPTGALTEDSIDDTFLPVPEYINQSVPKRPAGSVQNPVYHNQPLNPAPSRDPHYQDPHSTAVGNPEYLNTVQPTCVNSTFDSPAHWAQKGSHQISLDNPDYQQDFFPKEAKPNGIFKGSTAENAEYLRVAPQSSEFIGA

| Compound | IC50 (EGFR WT) [µM] | IC50 (HER2YVMA) [µM] | EC50 [1] [µM] | IC50 (HER2 WT) [µM] |
| --- | --- | --- | --- | --- |
| Cc1ccc(Oc2ccc(Nc3ncnc4sc5c(c34)C[C@@H](C)N(C(=O)/C=C/CN(C)C)[C@H]5C)cc2C)cn1 (racemic) [Compound 149, (E)-1-(6,8-cis-dimethyl-4-((3-methyl-4-((6-methylpyridin-3-yl)oxy)phenyl)amino)-5,8-dihydropyrido[4′,3′:4,5]thieno[2,3-d]pyrimidin-7(6H)-yl)-4-(dimethylamino)but-2-en-1-one] | > 10 | < 0.1 | < 0.1 | < 0.1 |
| Cc1ccc(Oc2ccc(Nc3ncnc4sc5c(c34)C[C@@H](C)N(C(=O)/C=C/CN(C)C)[C@@H]5C)cc2C)cn1 (racemic) [Compound 165, (E)-1-(6,8-trans-dimethyl-4-((3-methyl-4-((6-methylpyridin-3-yl)oxy)phenyl)amino)-5,8-dihydropyrido[4′,3′:4,5]thieno[2,3-d]pyrimidin-7(6H)-yl)-4-(dimethylamino)but-2-en-1-one] | > 10 | 0.1 to 1 | < 0.1 | 0.1 to 1 |
| C=CC(=O)N1[C@H](C)Cc2c(sc3ncnc(Nc4ccc(Oc5ccc(C)nc5)c(C)c4)c23)[C@H]1C (racemic) [Compound 166, 1-(6,8-trans-dimethyl-4-((3-methyl-4-((6-methylpyridin-3-yl)oxy)phenyl)amino)-5,8-dihydropyrido[4′,3′:4,5]thieno[2,3-d]pyrimidin-7(6H)-yl)prop-2-en-1-one] | > 10 | 0.1 to 1 | < 0.1 | 0.1 to 1 |
| C=CC(=O)N1Cc2sc3ncnc(Nc4ccc(Oc5ccc(C)nc5)c(C)c4)c3c2C(C)C1 (single isomer, unassigned) [Compound 145] | > 10 | < 0.1 | < 0.1 | < 0.1 |
| C=CC(=O)N1Cc2sc3ncnc(Nc4ccc(Oc5ccc(C)nc5)c(C)c4)c3c2C(C)C1 (single isomer, unassigned) [Compound 146] | 1 to 10 | < 0.1 | < 0.1 | < 0.1 |
| Cc1ccc(Oc2ccc(Nc3ncnc4sc5c(c34)C(C)N(C(=O)C=CCN(C)C)C5)cc2C)cn1 (single isomer, unassigned) [Compound 147] | > 10 | < 0.1 | < 0.1 | < 0.1 |
| Cc1ccc(Oc2ccc(Nc3ncnc4sc5c(c34)C(C)N(C(=O)C=CCN(C)C)C5)cc2C)cn1 (single isomer, unassigned) [Compound 148] | > 10 | 1 to 10 | 0.1 to 0.35 | 1 to 10 |
| COc1ccc(Oc2ccc(Nc3ncnc4sc5c(c34)C(C)CN(C(=O)C=CCN(C)C)C5)cc2C)cn1 (single isomer, unassigned) [Compound 159] | > 10 | 0.1 to 1 | < 0.1 | 0.1 to 1 |
| COc1ccc(Oc2ccc(Nc3ncnc4sc5c(c34)C(C)CN(C(=O)C=CCN(C)C)C5)cc2C)cn1 (single isomer, unassigned) [Compound 160] | > 10 | < 0.1 | < 0.1 | < 0.1 |
| Cc1ccc(Oc2ccc(Nc3ncnc4sc5c(c34)CC(C)N(C(=O)C=CCN(C)C)C5C)cc2C)cn1 (single isomer, unassigned) [Compound 161] | > 10 | < 0.1 | < 0.1 | < 0.1 |
| Cc1ccc(Oc2ccc(Nc3ncnc4sc5c(c34)CC(C)N(C(=O)C=CCN(C)C)C5C)cc2C)cn1 (single isomer, unassigned) [Compound 162] | > 10 | 1 to 10 | 0.1 to 0.35 | 1 to 10 |
| Cc1ccc(Oc2ccc(Nc3ncnc4sc5c(c34)CN(C(=O)C=CCN(C)C)C5C)cc2C)cn1 (single isomer, unassigned) [Compound 169] | > 10 | < 0.1 | < 0.1 | < 0.1 |
| Cc1ccc(Oc2ccc(Nc3ncnc4sc5c(c34)CN(C(=O)C=CCN(C)C)C5C)cc2C)cn1 (single isomer, unassigned) [Compound 170] | > 10 | 1 to 10 | 0.35 to 1 | 1 to 10 |
| Cc1ccc(Oc2ccc(Nc3ncnc4sc5c(c34)C(C)CN(C(=O)C=CCN3CCOCC3)C5)cc2C)cn1 (single isomer, unassigned) [Compound 176] | > 10 | 0.1 to 1 | < 0.1 | 0.1 to 1 |
| Cc1ccc(Oc2ccc(Nc3ncnc4sc5c(c34)C(C)CN(C(=O)C=CCN3CCOCC3)C5)cc2C)cn1 (single isomer, unassigned) [Compound 177] | > 10 | < 0.1 | < 0.1 | < 0.1 |
| Cc1ccc(Oc2ccc(Nc3ncnc4sc5c(c34)C(C)CN(C(=O)C=CCN(C)C(C)(C)C)C5)cc2C)cn1 (single isomer, unassigned) [Compound 178] | > 10 | 0.1 to 1 | < 0.1 | 0.1 to 1 |
| Cc1ccc(Oc2ccc(Nc3ncnc4sc5c(c34)C(C)CN(C(=O)C=CCN(C)C(C)(C)C)C5)cc2C)cn1 (single isomer, unassigned) [Compound 179] | > 10 | < 0.1 | < 0.1 | < 0.1 |
| Cc1ccc(Oc2ccc(Nc3ncnc4sc5c(c34)CCN(C(=O)/C=C/CN3CC4CCC(C4)C3)C5)cc2C)cn1 [Compound 16, (E)-4-(3-azabicyclo[3.2.1]octan-3-yl)-1-(4-((3-methyl-4-((6-methylpyridin-3-yl)oxy)phenyl)amino)-5,8-dihydropyrido[4′,3′:4,5]thieno[2,3-d]pyrimidin-7(6H)-yl)but-2-en-1-one benzenesulfonate salt] |  | < 0.1 | < 0.1 | < 0.1 |

From patent US20240391931A1 (Bristol-Myers Squibb Company, priority 2021, published 2024)
